Measurements from EP4549575A1 (priority 2023, dated 2025).
Where two headings read alike, the source gives them in different places. Square brackets hold non-standard residues; d marks the D form. Peptide text beside a SMILES is read from it. βAla = NCCC(=O)O

Columns and labels:
pronase = assay: Stability towards proteolysis (pronase, LC-MS); assay type: in vitro ADME, Streptomyces griseus; conditions: peptide 200 µM, protease 5 µg/mL, 37°C, pH 7.5; for stability against proteolysis: 0-2 h
Method: The evaluation of the stability of CP20 and Ac-LP20 towards proteolysis was tested at a peptide concentration of 200 µM using pronase (commercially available mixture of proteases isolated from the extracellular fluid of Streptomyces griseus, 2.5 µg/mg). Another peptide was added to this analysis, namely LP20 (without N-terminal acetylation), as it is easier to synthesize and to also assess the influence of N-terminal acetylation on the stability of LP20. Each peptide was tested in the presence of the protease (5 µg/mL) at 37°C in a buffer solution (50 mM Tris, 10 mM CaCl2, 150 mM NaCl, 0.05 % (w/v) Brij 35, pH 7.5) and its stability monitored by liquid chromatography coupled to mass spectrometry (LC-MS) at different time intervals (t=0 min, 10 min, 30 min, 1 h, 2 h). To stop enzyme activity, a small amount of the solution (60 µL) was transferred to an HPLC vial containing 6 µL of a 10% TFA solution at these different time points.

P. infestans [1] = conditions: for PGI (%) ± dev. std (Liquid medium): peptide 200 µM, Pea Broth, sporangia, OD620, 72 h, vs untreated control
P. infestans [2] = assay type: cell-based; conditions: for PPI: solid medium, linear vs cyclic peptides (Figure 8); for PPI (%) ± dev. std (Solid medium): peptide 200 µM, PAM agar, mycelium plug, 3-4 days, vs untreated control
Escherichia coli DH5α = assay: Specificity: growth in liquid culture (OD620); assay type: cell-based; conditions: 200 µM; LB medium; measured hourly up to 5 h
Method: (§1) The specificity of antimicrobial molecules is a key aspect in their development, as good degrees of specificity result in the absence of toxicity to other organisms in the environment such as animals, plants, fungi, bacteria, yeasts, livestock and humans. Therefore, initial assays were carried out to assess the toxicity profiles of CP20 and CP32, similar to those reported in Colombo et al.. For this purpose, the two cyclic peptides were added at a concentration of 200 µM to liquid cultures of the following microorganism species: • (i) Agrobacterium tumefaciens GV3101, (ii) Escherichia coli DH5α and (iii) Saccharomyces cerevisiae. The culture media used were respectively Luria-Bertani (LB) for the bacterial cultures, while Yeast Extract Peptone Dextrose (YEPD) medium was used for S. cerevisiae. Growth was measured hourly (up to 5 h) using a spectrophotometer (OD620).

Saccharomyces cerevisiae = assay: Specificity: growth in liquid culture (OD620); assay type: cell-based; conditions: 200 µM; YEPD medium; measured hourly up to 5 h
Method: as §1

P. infestans [3] = assay type: in vivo; conditions: tomato (Solanum lycopersicum, cv. Marmande) leaf discs; co-inoculation with sporangia; 5-7 days; reference concentration 200 µM
P. infestans [4] = assay type: cell-based; conditions: 10 mg/l; Pea Broth; sporangia; OD620, 72 h; positive control
P. viticola = assay type: in vivo, Plasmopara viticola (Berk. et Curt.) Berl. and De Toni; conditions: grapevine (Vitis vinifera cv. Pinot noir) leaf discs; mean ± standard deviation vs untreated control; concentration not given
P. capsici = assay type: cell-based, Phytophthora capsici Leonian
P. infestans [5] = assay type: cell-based; conditions: 10 mg/l; PAM agar; mycelium plug; 3-4 days; positive control
P. ultimum = assay type: cell-based, Pythium ultimum var. ultimum Trow; conditions: PDA agar, mycelium; mean ± standard deviation vs untreated control; concentration not given
[6] = from PGI values at 0.02-200 µM, three-parameter logistic model

| SMILES | time after which cleavage was observed in the presence of protease (pronase) [h] | stability against proteolysis (pronase) | EC99 (P. infestans [1]; [6]) [µM] | PGI (%) ± dev. std (Liquid medium) (P. infestans [1]) | PPI (%) ± Std. Dev. (P. infestans [2]; 200 µM, P. infestans mycelium, peptidomimetics) | PPI (P. infestans [2]; 200 µM, P. infestans mycelium) [%] | PPI (%) ± dev. std (Solid medium) (P. infestans [2]) | bacterial growth (OD620) (Escherichia coli DH5α) | growth inhibition (OD620) (Saccharomyces cerevisiae) | Percentage Protection Index for the leaf discs (PPI), reduction in symptoms (P. infestans [3]) [%] | time of total proteolysis of the peptide (pronase) [min] | EC50 (P. infestans [1]; [6]) [µM] | PGI (%) ± dev. std (Liquid medium) (P. infestans [4]) | P. viticola (IPP - %) (P. viticola) | P. capsici (PIC - %) (P. capsici) | PPI (%) ± dev. std (Solid medium) (P. infestans [5]) | P. ultimum (IPP - %) (P. ultimum) |
| --- | --- | --- | --- | --- | --- | --- | --- | --- | --- | --- | --- | --- | --- | --- | --- | --- | --- |
| CSCC[C@@H]1NC(=O)[C@H](Cc2c[nH]c3ccccc23)NC(=O)[C@H](CCCNC(=N)N)NC(=O)CCNC(=O)[C@H](CCCNC(=N)N)NC(=O)[C@H](CCCNC(=N)N)NC(=O)[C@H](Cc2ccc(O)cc2)NC(=O)[C@H](C(C)C)NC(=O)[C@H](CC(C)C)NC1=O [CP20, βA-R-W-M-L-V-Y-R-R] (cyclo(LVYRR[βAla]RWM)) | 2 | good stability against proteolysis | 68.37 | 86.19 ± 8.66 (b) % | 92.39 ± 2.17 (a) % | 89.53 | 88.99 ± 7.56 (b) % | no alteration in bacterial growth | no growth inhibition | 88.64 |  |  |  |  |  |  |  |
| CC(C)C[C@@H]1NC(=O)[C@H](CCCNC(=N)N)NC(=O)CNC(=O)CCNC(=O)[C@H](C(C)C)NC(=O)[C@H](CCCNC(=N)N)NC(=O)[C@H](CC(C)C)NC(=O)[C@H](Cc2c[nH]c3ccccc23)NC(=O)[C@H](CCCNC(=N)N)NC1=O [CP32, βA-G-R-L-R-W-L-R-V] (cyclo(GRLRWLRV[βAla])) |  | more stable against proteolysis than its linear analogues | 56.18 | 90.61 ± 10.87 (b) % |  | 87.44 | 87.93 ± 9.47 (b) % | no alteration in bacterial growth | no growth inhibition | 90.03 | 30 | 16 |  |  |  |  |  |
| C#CCOc1ccc(CCNC(=O)C(OCC#C)c2ccc(Cl)cc2)cc1OC (stereo not shown) [Mandipropamid, mandipropamid] |  |  |  |  |  |  |  |  |  |  |  |  | 100.00 ± 0 (a) % | 100 ± 0 (a) % | 100 ± 0 (a) % | 100.00 ± 0 (a) % |  |
| COCC(=O)N(c1c(C)cccc1C)[C@H](C)C(=O)OC [Metalaxyl-M] |  |  |  |  |  |  |  |  |  |  |  |  |  |  |  |  | 100 ± 0 (a) % |
